Reference: patent publication US8183248B2, “Substituted pyrrolo[2,3-d]pyrimidines and compositions as protein kinase inhibitors” (IRM LLC, priority 2005, dated 2012)

Key:
Assay in all cases: Upstate KinaseProfiler radio-enzymatic filter binding assay
Assay type in all cases: biochemical
Syk(h) = molecular target: T1, Syk(h) (Homo sapiens, UniProt P43405); details: read-out: percentage inhibition Syk(h)
T1 construct: purchased Upstate
Description: (§1) Compounds of the invention are assessed for their ability to inhibit individual members of the kinase panel. The compounds are tested in duplicates at a final concentration of 10 μM following this generic protocol. Note that the kinase buffer composition and the substrates vary for the different kinases included in the “Upstate KinaseProfiler™” panel. Kinase buffer (2.5 μL, 10×—containing MnCl2 when required), active kinase (0.001-0.01 Units; 2.5 μL), specific or Poly(Glu4-Tyr) peptide (5-500 μM or 0.01 mg/ml) in kinase buffer and kinase buffer (50 μM; 5 μL) are mixed in an eppendorf on ice. A Mg/ATP mix (10 μL; 67.5 (or 33.75) mM MgCl2, 450 (or 225) μM ATP and 1 μCi/μl [γ-^32P]-ATP (3000 Ci/mmol)) is added and the reaction is incubated at about 30° C. for about 10 minutes. The reaction mixture is spotted (20 μL) onto a 2 cm×2 cm P81 (phosphocellulose, for positively charged peptide substrates) or Whatman No. 1 (for Poly (Glu4-Tyr) peptide substrate) paper square. The assay squares are washed 4 times, for 5 minutes each, with 0.75% phosphoric acid and washed once with acetone for 5 minutes. The assay squares are transferred to a scintillation vial, 5 ml scintillation cocktail are added and ^32P incorporation (cpm) to the peptide substrate is quantified with a Beckman scintillation counter. Percentage inhibition is calculated for each reaction.

Bmx(h) = molecular target: T2, Bmx(h) (Homo sapiens, UniProt P51813); details: read-out: percentage inhibition Bmx(h)
T2 construct: purchased Upstate
Description: as §1

JNK2α2(h) = molecular target: T3, JNK2α2(h) (Homo sapiens, UniProt P45984); details: read-out: percentage inhibition JNK2α2(h)
T3 construct: purchased Upstate
Description: as §1

Rsk1(h) = molecular target: T4, Rsk1(h) (Homo sapiens, UniProt Q15418); details: read-out: percentage inhibition Rsk1(h)
T4 construct: purchased Upstate
Description: as §1

MKK6(h) = molecular target: T5, MKK6(h) (Homo sapiens, UniProt P52564); details: read-out: percentage inhibition MKK6(h)
T5 construct: purchased Upstate
Description: as §1

SGK(h) = molecular target: T6, SGK(h) (Homo sapiens, UniProt O00141); details: read-out: percentage inhibition SGK(h)
T6 construct: purchased Upstate
Description: as §1

SAPK3(h) = molecular target: T7, SAPK3(h) (Homo sapiens, UniProt P53778); details: read-out: percentage inhibition SAPK3(h)
T7 construct: purchased Upstate
T7 sequence (P53778 whole entry): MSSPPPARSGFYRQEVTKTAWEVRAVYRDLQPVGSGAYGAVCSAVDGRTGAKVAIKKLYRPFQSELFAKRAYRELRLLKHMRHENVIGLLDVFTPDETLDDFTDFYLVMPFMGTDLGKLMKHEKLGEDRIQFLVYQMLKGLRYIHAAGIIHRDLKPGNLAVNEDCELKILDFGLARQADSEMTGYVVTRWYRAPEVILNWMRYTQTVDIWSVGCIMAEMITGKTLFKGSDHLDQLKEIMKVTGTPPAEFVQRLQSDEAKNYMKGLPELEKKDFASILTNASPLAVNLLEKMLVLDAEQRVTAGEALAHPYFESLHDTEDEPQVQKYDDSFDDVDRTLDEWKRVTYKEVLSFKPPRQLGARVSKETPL
Description: as §1

TrkB(h) = molecular target: T8, TrkB(h) (Homo sapiens, UniProt Q16620); details: read-out: percentage inhibition TrkB(h)
T8 construct: purchased Upstate
Description: as §1

p70S6K(h) = molecular target: T9, p70S6K(h) (Homo sapiens, UniProt P23443); details: read-out: percentage inhibition p70S6K(h)
T9 construct: purchased Upstate
Description: as §1

Met(h) = molecular target: T10, Met(h) (Homo sapiens, UniProt P08581); details: read-out: percentage inhibition Met(h)
T10 construct: purchased Upstate
Description: as §1

SAPK4(h) = molecular target: T11, SAPK4(h) (Homo sapiens, UniProt O15264); details: read-out: percentage inhibition SAPK4(h)
T11 construct: purchased Upstate
T11 sequence (O15264 whole entry): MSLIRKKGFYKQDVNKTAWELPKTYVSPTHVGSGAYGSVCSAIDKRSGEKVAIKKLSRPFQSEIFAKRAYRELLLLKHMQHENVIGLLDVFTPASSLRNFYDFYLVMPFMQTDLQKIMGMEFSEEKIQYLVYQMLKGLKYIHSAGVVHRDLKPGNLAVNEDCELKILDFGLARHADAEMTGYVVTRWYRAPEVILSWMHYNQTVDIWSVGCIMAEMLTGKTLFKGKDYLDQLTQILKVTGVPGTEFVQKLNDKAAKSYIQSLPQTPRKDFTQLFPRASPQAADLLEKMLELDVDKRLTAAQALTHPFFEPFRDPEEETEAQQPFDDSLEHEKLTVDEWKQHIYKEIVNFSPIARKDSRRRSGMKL
Description: as §1

MKK4(m) = molecular target: T12, MKK4(m) (Mus musculus, UniProt P47809); details: read-out: percentage inhibition MKK4(m)
T12 construct: purchased Upstate
Description: as §1

Ros(h) = molecular target: T13, Ros(h) (Homo sapiens, UniProt P08922); details: read-out: percentage inhibition Ros(h)
T13 construct: purchased Upstate
T13 sequence (P08922 28-2347): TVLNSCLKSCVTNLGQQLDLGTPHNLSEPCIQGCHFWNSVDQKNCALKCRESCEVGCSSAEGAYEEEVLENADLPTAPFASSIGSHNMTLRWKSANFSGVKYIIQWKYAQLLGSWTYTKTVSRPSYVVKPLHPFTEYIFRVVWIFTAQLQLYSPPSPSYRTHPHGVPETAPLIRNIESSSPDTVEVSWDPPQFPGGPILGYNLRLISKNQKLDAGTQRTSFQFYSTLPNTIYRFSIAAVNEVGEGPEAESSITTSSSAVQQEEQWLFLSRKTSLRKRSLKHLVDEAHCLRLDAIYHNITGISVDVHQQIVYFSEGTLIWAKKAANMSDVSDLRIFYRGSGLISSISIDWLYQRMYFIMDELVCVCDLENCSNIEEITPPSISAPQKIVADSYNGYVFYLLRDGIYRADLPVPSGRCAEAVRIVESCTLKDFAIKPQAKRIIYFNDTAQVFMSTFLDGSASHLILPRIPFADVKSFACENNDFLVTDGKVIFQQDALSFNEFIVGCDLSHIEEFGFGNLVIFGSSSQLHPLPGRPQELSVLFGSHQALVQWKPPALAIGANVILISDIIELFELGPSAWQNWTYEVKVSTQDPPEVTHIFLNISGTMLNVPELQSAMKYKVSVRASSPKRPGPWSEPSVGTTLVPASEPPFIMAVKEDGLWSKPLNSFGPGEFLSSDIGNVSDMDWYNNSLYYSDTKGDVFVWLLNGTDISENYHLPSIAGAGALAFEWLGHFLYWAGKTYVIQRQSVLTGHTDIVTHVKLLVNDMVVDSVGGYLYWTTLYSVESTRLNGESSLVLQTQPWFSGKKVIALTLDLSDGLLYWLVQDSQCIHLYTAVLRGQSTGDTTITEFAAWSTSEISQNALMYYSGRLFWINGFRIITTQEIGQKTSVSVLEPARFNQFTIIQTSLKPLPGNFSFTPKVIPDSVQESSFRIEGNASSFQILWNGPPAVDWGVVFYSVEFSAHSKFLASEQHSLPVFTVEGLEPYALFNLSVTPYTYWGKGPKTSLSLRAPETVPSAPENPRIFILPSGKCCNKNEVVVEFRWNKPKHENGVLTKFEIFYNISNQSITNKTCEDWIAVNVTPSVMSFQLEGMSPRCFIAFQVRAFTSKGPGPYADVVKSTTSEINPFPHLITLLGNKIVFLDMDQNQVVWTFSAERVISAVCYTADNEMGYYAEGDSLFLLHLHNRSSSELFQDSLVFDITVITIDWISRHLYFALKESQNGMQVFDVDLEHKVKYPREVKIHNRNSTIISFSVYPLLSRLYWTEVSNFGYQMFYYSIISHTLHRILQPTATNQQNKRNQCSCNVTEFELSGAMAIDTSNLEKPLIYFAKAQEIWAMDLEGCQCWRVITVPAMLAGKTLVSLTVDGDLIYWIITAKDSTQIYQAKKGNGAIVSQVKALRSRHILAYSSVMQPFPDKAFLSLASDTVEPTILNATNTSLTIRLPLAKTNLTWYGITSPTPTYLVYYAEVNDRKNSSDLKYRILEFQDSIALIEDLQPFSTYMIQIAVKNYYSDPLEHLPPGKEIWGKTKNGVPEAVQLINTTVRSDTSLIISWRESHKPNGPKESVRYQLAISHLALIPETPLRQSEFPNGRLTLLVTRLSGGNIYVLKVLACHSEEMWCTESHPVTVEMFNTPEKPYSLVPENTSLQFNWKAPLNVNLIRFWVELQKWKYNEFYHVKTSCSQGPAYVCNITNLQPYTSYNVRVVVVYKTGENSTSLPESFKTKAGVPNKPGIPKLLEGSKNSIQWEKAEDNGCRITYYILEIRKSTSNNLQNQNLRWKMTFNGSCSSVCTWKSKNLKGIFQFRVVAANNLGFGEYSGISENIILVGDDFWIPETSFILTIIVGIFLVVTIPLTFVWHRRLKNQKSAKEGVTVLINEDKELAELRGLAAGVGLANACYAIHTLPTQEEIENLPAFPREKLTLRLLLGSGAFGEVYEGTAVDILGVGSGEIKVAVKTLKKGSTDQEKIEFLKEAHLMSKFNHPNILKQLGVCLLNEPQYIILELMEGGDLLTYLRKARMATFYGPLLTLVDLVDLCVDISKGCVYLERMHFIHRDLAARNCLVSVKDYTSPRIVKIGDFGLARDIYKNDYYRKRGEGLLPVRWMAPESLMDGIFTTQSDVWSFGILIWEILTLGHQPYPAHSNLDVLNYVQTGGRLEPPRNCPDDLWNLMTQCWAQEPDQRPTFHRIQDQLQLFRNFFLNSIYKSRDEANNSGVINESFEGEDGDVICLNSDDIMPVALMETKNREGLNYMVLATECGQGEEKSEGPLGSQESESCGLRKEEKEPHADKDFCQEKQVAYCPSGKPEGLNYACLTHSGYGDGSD
Description: as §1

FGFR3(h) = molecular target: T14, FGFR3(h) (Homo sapiens, UniProt P22607); details: read-out: percentage inhibition FGFR3(h)
T14 construct: purchased Upstate
Description: as §1

JNK1α1(h) = molecular target: T15, JNK1α1(h) (Homo sapiens, UniProt P45983); details: read-out: percentage inhibition JNK1α1(h)
T15 construct: purchased Upstate
T15 sequence (P45983 1-384 isoform P45983-2): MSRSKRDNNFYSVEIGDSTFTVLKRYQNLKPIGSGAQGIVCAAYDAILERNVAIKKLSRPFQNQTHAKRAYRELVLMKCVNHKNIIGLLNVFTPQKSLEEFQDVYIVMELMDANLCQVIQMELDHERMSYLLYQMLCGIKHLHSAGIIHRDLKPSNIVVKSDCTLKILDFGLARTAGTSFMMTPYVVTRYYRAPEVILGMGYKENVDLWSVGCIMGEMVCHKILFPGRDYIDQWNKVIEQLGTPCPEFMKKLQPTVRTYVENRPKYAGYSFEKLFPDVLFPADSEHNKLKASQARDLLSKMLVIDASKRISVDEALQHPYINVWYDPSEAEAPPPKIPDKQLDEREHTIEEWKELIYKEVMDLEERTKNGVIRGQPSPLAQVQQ
Description: as §1

SAPK2a(h) = molecular target: T16, SAPK2a(h) (Homo sapiens, UniProt Q16539); details: read-out: percentage inhibition SAPK2a(h)
T16 construct: purchased Upstate
T16 sequence (Q16539 whole entry): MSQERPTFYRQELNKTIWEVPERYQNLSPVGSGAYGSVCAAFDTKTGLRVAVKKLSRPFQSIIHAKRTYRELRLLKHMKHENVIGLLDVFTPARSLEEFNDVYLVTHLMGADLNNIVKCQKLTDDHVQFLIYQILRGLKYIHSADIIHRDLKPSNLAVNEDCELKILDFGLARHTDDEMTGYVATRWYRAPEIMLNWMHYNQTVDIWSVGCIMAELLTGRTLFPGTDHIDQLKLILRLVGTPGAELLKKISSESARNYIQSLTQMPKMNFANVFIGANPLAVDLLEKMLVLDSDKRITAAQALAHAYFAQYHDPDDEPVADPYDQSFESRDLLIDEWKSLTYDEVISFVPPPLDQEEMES
Description: as §1

Tie2(h) = molecular target: T17, Tie2(h) (Homo sapiens, UniProt Q02763); details: read-out: percentage inhibition Tie2(h)
T17 construct: purchased Upstate
Description: as §1

PDGFRα(h) = molecular target: T18, PDGFRα(h) (Homo sapiens, UniProt P16234); details: read-out: percentage inhibition PDGFRα(h)
T18 construct: purchased Upstate
Description: as §1

ROCK-II(h) = molecular target: T19, ROCK-II(h) (Homo sapiens, UniProt O75116); details: read-out: percentage inhibition ROCK-II(h)
T19 construct: purchased Upstate
Description: as §1

IKKβ(h) = molecular target: T20, IKKβ(h) (Homo sapiens, UniProt O14920); details: read-out: percentage inhibition IKKβ(h)
T20 construct: purchased Upstate
T20 sequence (O14920 whole entry): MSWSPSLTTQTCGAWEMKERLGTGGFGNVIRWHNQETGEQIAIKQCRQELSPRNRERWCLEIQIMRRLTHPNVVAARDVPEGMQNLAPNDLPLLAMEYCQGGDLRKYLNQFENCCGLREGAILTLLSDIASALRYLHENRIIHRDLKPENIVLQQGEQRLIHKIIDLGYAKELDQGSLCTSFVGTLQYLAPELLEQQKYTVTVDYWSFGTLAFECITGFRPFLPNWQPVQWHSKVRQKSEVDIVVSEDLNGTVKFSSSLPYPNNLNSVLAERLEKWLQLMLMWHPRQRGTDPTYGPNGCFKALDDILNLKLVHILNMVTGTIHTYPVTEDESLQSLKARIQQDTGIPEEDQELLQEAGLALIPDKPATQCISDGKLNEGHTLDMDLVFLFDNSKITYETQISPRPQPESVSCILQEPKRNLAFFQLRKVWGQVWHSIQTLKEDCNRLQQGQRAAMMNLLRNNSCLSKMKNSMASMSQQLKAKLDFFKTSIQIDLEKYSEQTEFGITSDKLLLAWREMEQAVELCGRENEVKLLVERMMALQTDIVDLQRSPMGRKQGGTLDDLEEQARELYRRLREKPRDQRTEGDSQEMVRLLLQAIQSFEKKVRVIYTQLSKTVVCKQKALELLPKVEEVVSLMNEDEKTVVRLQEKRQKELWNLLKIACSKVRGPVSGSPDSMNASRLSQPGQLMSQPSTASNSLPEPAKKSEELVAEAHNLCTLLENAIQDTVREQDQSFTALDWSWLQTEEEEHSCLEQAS
Description: as §1

BTK(h) = molecular target: T21, BTK(h) (Homo sapiens, UniProt Q06187); details: read-out: percentage inhibition BTK(h)
T21 construct: purchased Upstate
Description: as §1

c-RAF(h) = molecular target: T22, c-RAF(h) (Homo sapiens, UniProt P04049); details: read-out: percentage inhibition c-RAF(h)
T22 construct: purchased Upstate
Description: as §1

PKD2(h) = molecular target: T23, PKD2(h) (Homo sapiens, UniProt Q9BZL6); details: read-out: percentage inhibition PKD2(h)
T23 construct: purchased Upstate
Description: as §1

PKCα(h) = molecular target: T24, PKCα(h) (Homo sapiens, UniProt P17252); details: read-out: percentage inhibition PKCα(h)
T24 construct: purchased Upstate
Description: as §1

Abl(T315L) = molecular target: T25, Abl(T315L) (Homo sapiens, UniProt P00519, T315I); details: read-out: percentage inhibition Abl(T315L)
T25 construct: purchased Upstate
Description: as §1

CSK(h) = molecular target: T26, CSK(h) (Homo sapiens, UniProt P41240); details: read-out: percentage inhibition CSK(h)
T26 construct: purchased Upstate
Description: as §1

PAK2(h) = molecular target: T27, PAK2(h) (Homo sapiens, UniProt Q13177); details: read-out: percentage inhibition PAK2(h)
T27 construct: purchased Upstate
T27 sequence (Q13177 whole entry): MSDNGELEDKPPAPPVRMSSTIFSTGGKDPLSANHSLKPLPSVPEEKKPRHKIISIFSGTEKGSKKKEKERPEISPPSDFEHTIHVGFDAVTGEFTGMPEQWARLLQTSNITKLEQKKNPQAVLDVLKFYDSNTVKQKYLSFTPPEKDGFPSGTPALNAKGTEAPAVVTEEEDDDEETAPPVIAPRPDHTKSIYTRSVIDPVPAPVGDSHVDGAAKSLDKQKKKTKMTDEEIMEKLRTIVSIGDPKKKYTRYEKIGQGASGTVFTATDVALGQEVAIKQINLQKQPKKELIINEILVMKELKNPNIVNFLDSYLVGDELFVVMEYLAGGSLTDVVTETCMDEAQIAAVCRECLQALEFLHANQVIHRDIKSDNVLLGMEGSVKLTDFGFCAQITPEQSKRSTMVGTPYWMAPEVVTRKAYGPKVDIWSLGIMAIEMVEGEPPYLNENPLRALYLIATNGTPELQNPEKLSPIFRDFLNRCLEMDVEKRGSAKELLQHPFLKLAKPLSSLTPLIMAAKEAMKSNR
Description: as §1

cSRC(h) = molecular target: T28, cSRC(h) (Homo sapiens, UniProt P12931); details: read-out: percentage inhibition cSRC(h)
T28 construct: purchased Upstate
Description: as §1

inhibition at 10 µM (Syk(h)): 63%
inhibition at 10 µM (Bmx(h)): 100%
inhibition at 10 µM (JNK2α2(h)): 99%
inhibition at 10 µM (Rsk1(h)): 95%
inhibition at 10 µM (MKK6(h)): 98%
inhibition at 10 µM (SGK(h)): 81%
inhibition at 10 µM (SAPK3(h)): 92%
inhibition at 10 µM (TrkB(h)): 99%
inhibition at 10 µM (p70S6K(h)): 94%
inhibition at 10 µM (Met(h)): 70%
inhibition at 10 µM (SAPK4(h)): 82%
inhibition at 10 µM (MKK4(m)): 87%
inhibition at 10 µM (Ros(h)): 62%
inhibition at 10 µM (FGFR3(h)): 98%
inhibition at 10 µM (JNK1α1(h)): 81%
inhibition at 10 µM (SAPK2a(h)): 92%
inhibition at 10 µM (Tie2(h)): 98%
inhibition at 10 µM (PDGFRα(h)): 93%
inhibition at 10 µM (ROCK-II(h)): 78%
inhibition at 10 µM (IKKβ(h)): 96%
inhibition at 10 µM (BTK(h)): 99%
inhibition at 10 µM (c-RAF(h)): 97%
inhibition at 10 µM (PKD2(h)): 94%
inhibition at 10 µM (PKCα(h)): 61%
inhibition at 10 µM (Abl(T315L)): 98%
inhibition at 10 µM (CSK(h)): 100%
inhibition at 10 µM (PAK2(h)): 62%
inhibition at 10 µM (cSRC(h)): 99%
SMILES: CCN1CCN(Cc2ccc(NC(=O)c3ccc(C)c(NC(=O)N(C)c4ncnc5[nH]ccc45)c3)cc2C(F)(F)F)CC1 [Example 4, N-[4-(4-Ethyl-piperazin-1-ylmethyl)-3-trifluoromethyl-phenyl]-4-methyl-3-[3-methyl-3-(7H-pyrrolo[2,3-d]pyrimidin-4-yl)-ureido]-benzamide]
